Source: US20050064507A1, “Determining kinase specificity” (priority 2003, published 2005)
Square brackets hold non-standard residues; d marks the D form. Ends that are not written are not given here. pS = N[C@@H](COP(=O)(O)O)C(=O)O

Legend:
pPKC antibody [1] = assay: ELISA binding of pPKC antibody to synthesized SHP-1 phosphopeptides; details: for Binding of pPKC antibody: ELISA on phosphopeptide, normalized to the value for the Ser-591 peptide; for binding of pPKC antibody to phosphorylated peptide: ELISA
Description: Tests were conducted to test whether SHP-1 is phosphorylated in vivo at Ser-591, Ser-26 or Ser-300. To do so, a strategy was employed that used a commercially available antibody from Cell Signaling Technology that is referred to as a phospho-PKC motif antibody (designated herein as pPKC Ab). (See U.S. Pat. No. 6,441,140 and Cell Signaling Technology Datasheet for ‘Phospho-(Ser) PKC Substrate Antibody’). […] Such antibodies can be used for detection of unknown proteins that contain phosphorylation sites conforming to the motif to which they bind. For example, phosphorylated proteins can be detected on two-dimensional gels with the pPKC Ab and the identity of these phosphorylated proteins can be confirmed by the observed molecular weight, isoelectric point and other information such as the predictive algorithms provided herein. Similarly, such detected proteins can be enriched by classical biochemical separations, and when sufficiently enriched, can be identified by mass spectrometry (Astoul E et al. 2003. J Biol Chem 278:9267-9275).
Because these studies of SHP-1 were an early precedent-setting study, a rigorous approach was adopted in determining whether pPKC antibody binding included one or more of the three predicted SHP-1 sites. Phosphorylated peptides corresponding to the three best predicted PKC sites were synthesized (Table 7) in microtiter wells using a method of prior art described in U.S. Pat. No. 6,031,074. In addition, phosphorylated peptides corresponding to others sites in SHP-1 that match part of the motif detected by the pPKC antibody were also synthesized. Those phosphorylated peptides were then analyzed for reactivity with the pPKC antibody in an ELISA assay.
Among the phosphorylated peptides corresponding to sites in SHP-1, the best binding of pPKC antibody was detected with the phosphorylated peptide corresponding to Ser-591 (Table 7; […]).

pPKC antibody [2] = details: cited from earlier work
pPKC Ab = pPKC Ab binding to peptides phosphorylated in vitro by PKC-theta; details: for pPKC Ab binding to peptide: before/after phosphorylation by PKC-theta
Description: Synthetic peptides chosen from those shown in Table 4 were subjected to phosphorylation by PKC-theta, Assay conditions were similar to those described herein, except that the phosphorylation reaction was for 30 minutes at 30° C. and then overnight at 4° C. The reaction mixture was applied to HB avidin-coated plates, the plates washed, and then pPKC Ab binding assayed.

PKC-theta = target: T1, PKC-theta (Homo sapiens, UniProt Q04759); assay: In vitro kinase assay: peptide phosphorylation by PKC-theta; type: biochemical; details: for Measured in vitro phosphorylation by PKC-theta: normalized to best substrate
T1 construct: His-tag; made in house; host or cells: baculovirus-infected Sf9 cells
T1 sequence (Q04759 whole entry): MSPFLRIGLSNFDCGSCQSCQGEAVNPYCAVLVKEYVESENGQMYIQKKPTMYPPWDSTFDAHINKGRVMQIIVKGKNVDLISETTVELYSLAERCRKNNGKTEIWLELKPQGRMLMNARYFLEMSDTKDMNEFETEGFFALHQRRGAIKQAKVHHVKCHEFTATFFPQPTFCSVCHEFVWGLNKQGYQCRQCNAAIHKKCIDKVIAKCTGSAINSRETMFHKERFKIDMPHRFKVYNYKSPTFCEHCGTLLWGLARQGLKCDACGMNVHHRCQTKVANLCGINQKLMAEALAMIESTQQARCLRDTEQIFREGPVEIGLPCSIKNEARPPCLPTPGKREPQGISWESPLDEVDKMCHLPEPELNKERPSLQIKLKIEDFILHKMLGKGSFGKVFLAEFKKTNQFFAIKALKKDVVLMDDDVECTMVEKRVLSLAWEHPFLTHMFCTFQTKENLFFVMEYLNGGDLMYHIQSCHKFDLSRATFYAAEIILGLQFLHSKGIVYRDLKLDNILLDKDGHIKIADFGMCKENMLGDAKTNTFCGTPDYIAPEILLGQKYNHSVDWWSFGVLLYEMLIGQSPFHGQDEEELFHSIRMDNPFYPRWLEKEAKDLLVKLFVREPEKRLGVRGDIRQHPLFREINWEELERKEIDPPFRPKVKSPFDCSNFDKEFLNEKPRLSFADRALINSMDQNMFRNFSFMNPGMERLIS
Text: A second strategy for validation of the PSSM derived from the methods described herein is to identify sequences represented in the human proteome that have low percentiles derived from the PSSM, to synthesize peptides that have those sequences, and test the efficiency of phosphorylation of those peptides by the kinase of interest. […] The results are shown for individual peptides (FIG. 11, panel A) or for groups of peptides aggregated by percentile prediction (FIG. 11, panel B). As with the testing described above with prospectively chosen peptides, the percentile scores are highly predictive of phosphorylation by the relevant kinase.
An example of the purification procedure used for production of active kinase is as follows. A preparation of PKC-theta was prepared using a Gateway expression construct containing PKC-theta that was expressed in baculovirus, which were used to infect Sf9 cells. The cell pellet from a liter of baculovirus-infected Sf9 cells was resuspended in 20 volumes (60 ml) of extraction buffer (20 mM Na phosphate buffer pH 7.5, 500 mM NaCl, 5 mM pyrophosphate, 10% glycerol, 10 mM imidazole, 1 mM PMSF), sonicated twice for one minute (1 cm tip at 60% power and 50% duty cycle) and cell disruption was verified microscopically. The sample was adjusted to five mM MgCl2 and treated with one U benzonase/ml for an additional 20 minute on ice. The sample was clarified by centrifugation in a JA-20 rotor at 15K for 30 min at 4° C., filtered through a […] filter and applied at 0.5 ml/min to a one ml chelating sepharose column previously charged with nickel and equilibrated with extraction buffer. The column was washed with extraction buffer at one ml/min to baseline and eluted in a 20 ml gradient (20-500 mM imidazole in extraction buffer) into one ml fractions that were analyzed by SDS-PAGE. Fractions with the highest concentration of protein were pooled, were dialyzed twice against one liter of 20 mM Na PO4 pH 7.5, 50 mM NaCl buffer. The kinase pool was dialyzed twice against 20 mM HEPES pH 7.4, 100 mM NaCl, 2 mM EDTA, 5 mM DTT, 0.05% Triton-X-100. After dialysis, the sample was adjusted to 50% glycerol and quick-frozen in a dry ice/ethanol bath.
(§1) The conditions of the kinase assay and the amount of active kinase used varied with the kinase and with the accuracy needed. For a typical experiment, 5-20 ng of kinase was used per well and each peptide pool was assayed in duplicate wells. Note that the absolute amount of kinase used was not usually a critical parameter, because the desired information related to specificity of the kinase not its absolute activity, and robustness of the assay depends on comparisons of the same amount of kinase on different peptides. The combination of kinase concentration and assay duration was modified to assure that the stoichiometry of peptide phosphorylation never exceeded 5%. The choice of kinase buffer depended on the kinase being analyzed. For studies of PKC, 100 mM HEPES, 0.05% Triton-X100, 1 mM CaCl2, 20 mM MgCl2, 0.2 mg/ml phosphatidyl serine (Avanti Polar Lipids), PMA 100 ng/ml was typically used. The lipid stock was prepared by transferring 3 mg phosphatidyl serine into iced mixture of 450 μl water plus 50 μl of 10% Triton-X100, sonicating 10 times on ice for 1 sec each.
The kinase reaction mixture was assembled by sequential addition to a tube held on ice of: 5 μl peptide (100 μM for final concentration of 10 μM), 15 μl of kinase (typically 5 ng/well, in appropriate kinase buffer), 30 μl of ATP (1 uCi/well of ^32P-gamma ATP in a stock of 167 μM cold ATP in the kinase buffer; for final concentration for 100 μM ATP). The mixture was rapidly warmed to desired reaction temperature (30° C. for PKC) and incubated for the desired duration (usually 10 minutes). The kinase assay was terminated by transfer to 4° C. water batch, and rapid addition of an equal volume (50 μl) of stop solution [0.1M ATP+0.1M EDTA in water, pH 8]. […]

PKC-delta = target: T2, PKC-delta (Homo sapiens, UniProt Q05655); assay: In vitro kinase assay: peptide phosphorylation by PKC-delta; type: biochemical; details: peptide concentration of 10 nM; percentage of phosphorylation of the best validating peptide substrate
T2 construct: purchased Calbiochem
T2 sequence (Q05655 whole entry): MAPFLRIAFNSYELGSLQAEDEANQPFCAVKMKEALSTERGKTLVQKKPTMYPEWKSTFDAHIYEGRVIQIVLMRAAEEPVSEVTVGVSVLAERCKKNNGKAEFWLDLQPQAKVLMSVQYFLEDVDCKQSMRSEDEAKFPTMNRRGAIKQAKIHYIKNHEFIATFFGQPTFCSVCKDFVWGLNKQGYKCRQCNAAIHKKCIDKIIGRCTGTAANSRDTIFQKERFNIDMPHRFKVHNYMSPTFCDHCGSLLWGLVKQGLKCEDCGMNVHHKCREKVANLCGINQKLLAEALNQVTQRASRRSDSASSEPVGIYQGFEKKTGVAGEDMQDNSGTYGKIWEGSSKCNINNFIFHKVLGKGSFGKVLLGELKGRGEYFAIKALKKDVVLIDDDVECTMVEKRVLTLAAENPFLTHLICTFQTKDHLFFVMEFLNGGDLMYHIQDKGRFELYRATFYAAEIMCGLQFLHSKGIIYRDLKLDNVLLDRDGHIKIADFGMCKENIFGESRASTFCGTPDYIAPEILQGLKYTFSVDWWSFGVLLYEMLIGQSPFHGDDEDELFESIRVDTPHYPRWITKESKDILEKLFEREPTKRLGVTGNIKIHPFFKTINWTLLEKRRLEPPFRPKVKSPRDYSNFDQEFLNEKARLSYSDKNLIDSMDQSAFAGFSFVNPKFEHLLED
Text: One approach to validating a substrate identification method can involve, for example, comparison of substrate sites predicted by the method with in vitro phosphorylation results obtained using the selected kinase and peptides of known sequences. Such a systematic validation has been performed for the methods described herein. For example, a panel of seventy five peptides was synthesized, the phosphorylation observed for each peptide was experimentally measured, the amount of phosphorylation was quantified, the phosphorylation results for each peptide were normalized to the phosphorylation observed with the best substrate tested and these amounts were compared with predictions made according to the invention and according to the procedures provided by others. These peptides are referred to herein as proteomic peptides because their sequences are chosen from proteins in the human proteome; unlike the test sets employed herein, these peptides include no degenerate positions
Table 2 compares the present predictions with actual measurements of phosphorylation on validating peptides. The method of synthesis of the validating peptides was as described elsewhere in the application, and each included an N-terminal linker sequence of biotinylated-Lys-dansylated-Lys-Pro-Pro-Gly (SEQ ID NO:231). The length of the remaining “core” of the validating peptides ranged from 12-21 residues with one to five S/T residues. In vitro phosphorylation of these validating peptides was measured in the manner described herein. […] In vitro phosphorylation results for the validating peptides were expressed as normalized values, namely as a percentage of phosphorylation of the best validating peptide substrate in the group.
as §1
The kinase reaction mixture was assembled by sequential addition to a tube held on ice of: 5 μl peptide (100 μM for final concentration of 10 μM), 15 μl of kinase (typically 5 ng/well, in appropriate kinase buffer), 30 μl of ATP (1 uCi/well of ^32P-gamma ATP in a stock of 167 μM cold ATP in the kinase buffer; for final concentration for 100 μM ATP). The mixture was rapidly warmed to desired reaction temperature (30° C. for PKC) and incubated for the desired duration (usually 10 minutes). The kinase assay was terminated by transfer to 4° C. water batch, and rapid addition of an equal volume (50 μl) of stop solution [0.1M ATP+0.1M EDTA in water, pH 8].
The peptides were then captured from the reaction mixture by transfer to a Reacti-Bind Streptavidin High Binding Capacity Coated Plates (HBC) (Pierce Biotechnology) as follows. The HBC plates were pre-rinsed three times with PBS/Tween PBS/Tween20 0.05% (PBS/Tween). […]

Substance: 295 (PWTFLVRE[pS]LSQPGDFV) [compound 295]
- Binding of pPKC antibody (pPKC antibody [1]): 5

Substance: 230 (RRP[pS]YRK) [compound 230]
- binding of pPKC antibody (manufacturer Cell Signaling Technology) (pPKC antibody [2]): binds

Substance: 300 (HGSFLARP[pS]RKNQGDFS) [compound 300]
- Binding of pPKC antibody (pPKC antibody [1]): 39

Substance: 296 (KNQGDFSL[pS]VRVGDQVT) [compound 296]
- Binding of pPKC antibody (pPKC antibody [1]): 3

Substance: 294 (HAKASRTS[pS]KHKEDVYE) [compound 294]
- Binding of pPKC antibody (pPKC antibody [1]): 7

Substance: 293 (PSEPGGVL[pS]FLDQINQR) [compound 293]
- Binding of pPKC antibody (pPKC antibody [1]): 9

Substance: 229 (WKN[pS]IRH) [compound 229]
- binding of pPKC antibody (manufacturer Cell Signaling Technology) (pPKC antibody [2]): binds

Substance: 289 (MKNAHAKA[pS]RTSSKHKE) [compound 289]
- Binding of pPKC antibody (pPKC antibody [1]): 18

Substance: 299 (LKGRGVHG[pS]FLARPSRK) [compound 299]
- Binding of pPKC antibody (pPKC antibody [1]): 54

Substance: 292 (KKKLEVLQ[pS]QKGQESEY) [compound 292]
- Binding of pPKC antibody (pPKC antibody [1]): 11

Substance: 297 (PLNCSDPT[pS]ERWYHGHM) [compound 297]
- Binding of pPKC antibody (pPKC antibody [1]): 0

Substance: 291 (AHAKASRT[pS]SKHKEDVY) [compound 291]
- Binding of pPKC antibody (pPKC antibody [1]): 12

Substance: ADKEKSKG-pS-LKRK---- (ADKEKSKG[pS]LKRK) [SEQ ID NO 298]
- binding of pPKC antibody to phosphorylated peptide (pPKC antibody [1]): best binding

Substance: HGSFLARP-pS-RKNQGDFS (HGSFLARP[pS]RKNQGDFS) [SEQ ID NO 300]
- binding of pPKC antibody to phosphorylated peptide (pPKC antibody [1]): distinctly lower but readily detectable binding

Substance: HVRRRRGTFKRSKLRARD [SEQ ID NO 1]
- pPKC Ab binding to peptide (pPKC Ab): after phosphorylation but not before

Substance: 182 (TKKKRGSYRGGS) [compound 182]
- Measured in vitro phosphorylation by PKC-theta (PKC-theta): 61%

Substance: LRRRSLRRSNSISKSPGP [SEQ ID NO 121]
- pPKC Ab binding to peptide (pPKC Ab): after phosphorylation but not before

Substance: 290 (RVILQGRD[pS]NIPGSDYI) [compound 290]
- Binding of pPKC antibody (pPKC antibody [1]): 13

Substance: LKGRGVHG-pS-FLARPSRK (LKGRGVHG[pS]FLARPSRK) [SEQ ID NO 299]
- binding of pPKC antibody to phosphorylated peptide (pPKC antibody [1]): distinctly lower but readily detectable binding

Substance: 197 (ILRPSKSVKLRS) [compound 197]
- Measured in vitro phosphorylation by PKC-theta (PKC-theta): 32%

Substance: 179 (KRHYRKSVRSRS) [compound 179]
- Measured in vitro phosphorylation by PKC-theta (PKC-theta): 65%

Substance: 191 (HKRNSVRLVIR) [compound 191]
- Measured in vitro phosphorylation by PKC-theta (PKC-theta): 38%

Substance: 205 (EGRRSRSRRYSG) [compound 205]
- Measured in vitro phosphorylation by PKC-theta (PKC-theta): 22%

Substance: 198 (RRRRPTKSKGSK) [compound 198]
- Measured in vitro phosphorylation by PKC-theta (PKC-theta): 28%

Substance: 75 (EEAEHKATKARLADK) [compound 75]
- Peptide phosphorylation by PKC-theta (PKC-theta; Table 8): 0
- Measured in vitro phosphorylation by PKC-delta (PKC-delta): 0%
- pPKC Ab Signal on peptide without exposure to PKC-theta (pPKC Ab): 0.02
- pPKC Ab Signal on peptide after exposure to PKC-theta phosphorylation (pPKC Ab; 30 minutes at 30° C. then overnight at 4° C.): 0.02
- pPKC Ab Signal amount dependent on PKC phosphorylation (pPKC Ab; difference after minus without exposure): 0.00

Substance: 298 (ADKEKSKG[pS]LKRK) [compound 298]
- Binding of pPKC antibody (pPKC antibody [1]): 100
